Experimental data taken from US6737383B1, “Herbicidal oxadiazolidines” (priority 1999, dated 2004).

Legend:
[1] = tested on: morningglory; experiment: Test B pre/postemergence morningglory; assay type: in vivo, Ipomoea hederacea
Method in brief: (§1)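 Response is a visual 0-to-10 score relative to untreated plants, where 0 means no effect and 10 means complete control, taken twelve to sixteen days after application. Treatments went onto soil at planting and onto foliage of 1- to 4-leaf plants, using a surfactant-containing non-phytotoxic solvent.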

[2] = tested on: cocklebur; experiment: Test B pre/postemergence cocklebur; assay type: in vivo, Xanthium strumarium
Method in brief: as §1

[3] = tested on: rice; experiment: Test B flood test rice; assay type: in vivo, Oryza sativa
Method in brief: (§2)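 Read-out is a visual response score from 0 (no effect) to 10 (complete control), assigned by comparison with untreated controls. Treatment was applied at the 2-leaf stage, and plants stayed in the greenhouse for twelve to sixteen days before scoring.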

[4] = tested on: sugar beet; experiment: Test B pre/postemergence sugar beet; assay type: in vivo, Beta vulgaris
Method in brief: as §1

[5] = tested on: soybean; experiment: Test B pre/postemergence soybean; assay type: in vivo, Glycine max
Method in brief: as §1

[6] = tested on: wild oat; experiment: Test B pre/postemergence wild oat; assay type: in vivo, Avena fatua
Method in brief: as §1

[7] = tested on: corn; experiment: Test B pre/postemergence corn; assay type: in vivo, Zea mays
Method in brief: as §1

[8] = tested on: crabgrass; experiment: Test B pre/postemergence crabgrass; assay type: in vivo, Digitaria sanguinalis
Method in brief: as §1

[9] = tested on: duck salad; experiment: Test B flood test duck salad; assay type: in vivo, Heteranthera limosa
Method in brief: as §2

[10] = tested on: surinam grass; experiment: Test B pre/postemergence surinam grass; assay type: in vivo, Brachiaria decumbens
Method in brief: as §1

[11] = tested on: velvetleaf; experiment: Test B pre/postemergence velvetleaf; assay type: in vivo, Abutilon theophrasti
Method in brief: as §1

[12] = tested on: pigweed; experiment: Test B pre/postemergence pigweed; assay type: in vivo, Amaranthus retroflexus
Method in brief: as §1

[13] = tested on: rape; experiment: Test B pre/postemergence rape; assay type: in vivo, Brassica napus
Method in brief: as §1

[14] = tested on: smallflower flatsedge; experiment: Test B flood test smallflower flatsedge; assay type: in vivo, Cyperus difformis
Method in brief: as §2

[15] = tested on: bedstraw; experiment: Test B pre/postemergence bedstraw; assay type: in vivo, Galium aparine
Method in brief: as §1

[16] = tested on: bamyardgrass; experiment: Test B flood test barnyardgrass; assay type: in vivo, Echinochloa crus-galli
Method in brief: as §2

[17] = Postemergence, Rate 125 g/ha, scale of 0 to 10 where 0 is no effect and 10 is complete control
[18] = Preemergence, Rate 62 g/ha, scale 0 to 10 (0 no effect, 10 complete control)
[19] = Preemergence, Rate 125 g/ha, 0 is no effect, 10 is complete control
[20] = Preemergence, Rate 250 g/ha, scale 0 to 10, 0 is no effect, 10 is complete control
[21] = Preemergence, Rate 500 g/ha, scale 0 to 10 (0 no effect, 10 complete control)
[22] = Rate 62 g/ha, Postemergence, scale of 0 to 10 where 0 is no effect and 10 is complete control
[23] = Rate 250 g/ha, Postemergence, scale 0 to 10, 0 is no effect, 10 is complete control
[24] = Rate 500 g/ha, Postemergence, scale 0 to 10
[25] = Postemergence (flood test species), Rate 125 g/ha, scale of 0 to 10 where 0 is no effect and 10 is complete control
[26] = Rate 62 g/ha, Postemergence section, flood test species, scale of 0 to 10 where 0 is no effect and 10 is complete control
[27] = Rate 250 g/ha, Postemergence (flood test), scale 0 to 10, 0 is no effect, 10 is complete control
[28] = Rate 500 g/ha, listed under Postemergence (flood test species), scale 0 to 10

CCN(CC)C(=O)n1oc(=O)n(Cc2ccccc2)c1=O [Compound 152]
Morningglory plant response rating [1, 17]: 0 | Morningglory plant response rating [1, 18]: 0 | Morningglory plant response rating (0 to 10 scale) [1, 19]: 0 | Morningglory plant response rating [1, 20]: 0 | Morningglory plant response rating [1, 21]: 0 | Morningglory plant response rating [1, 22]: 0 | Plant response rating, Morningglory [1, 23]: 0 | Morningglory plant response rating [1, 24]: 0 | Cocklebur plant response rating [2, 17]: 0 | Cocklebur plant response rating [2, 18]: 0 | Cocklebur plant response rating (0 to 10 scale) [2, 19]: 0 | Cocklebur plant response rating [2, 20]: 0 | Cocklebur plant response rating [2, 21]: 0 | Cocklebur plant response rating [2, 22]: 0 | Plant response rating, Cocklebur [2, 23]: 0 | Cocklebur plant response rating [2, 24]: 0 | Rice plant response rating [3, 25]: 0 | Rice plant response rating [3, 26]: 0 | Plant response rating, Rice [3, 27]: 0 | Rice plant response rating [3, 28]: 0 | Sugarbeets plant response rating [4, 17]: 0 | Sugarbeets plant response rating [4, 18]: 0 | Sugarbeets plant response rating (0 to 10 scale) [4, 19]: 0 | Sugarbeets plant response rating [4, 20]: 0 | Sugarbeets plant response rating [4, 21]: 0 | Sugarbeets plant response rating [4, 22]: 0 | Plant response rating, Sugarbeets [4, 23]: 0 | Sugarbeets plant response rating [4, 24]: 0 | Soybean plant response rating [5, 17]: 0 | Soybean plant response rating [5, 18]: 0 | Soybean plant response rating (0 to 10 scale) [5, 19]: 0 | Soybean plant response rating [5, 20]: 0 | Soybean plant response rating [5, 21]: 0 | Soybean plant response rating [5, 22]: 0 | Plant response rating, Soybean [5, 23]: 1 | Soybean plant response rating [5, 24]: 1 | Wild oats plant response rating [6, 18]: 0 | Wild oats plant response rating (0 to 10 scale) [6, 19]: 0 | Wild oats plant response rating [6, 20]: 0 | Wild oats plant response rating [6, 21]: 0 | Wild oats plant response rating [6, 22]: 0 | Plant response rating, Wild oats [6, 23]: 0 | Wild oats plant response rating [6, 24]: 0 | Corn plant response rating [7, 17]: 0 | Corn plant response rating [7, 18]: 0 | Corn plant response rating (0 to 10 scale) [7, 19]: 0 | Corn plant response rating [7, 20]: 0 | Corn plant response rating [7, 21]: 0 | Corn plant response rating [7, 22]: 0 | Plant response rating, Corn [7, 23]: 0 | Corn plant response rating [7, 24]: 0 | Crabgrass plant response rating [8, 17]: 0 | Crabgrass plant response rating [8, 18]: 0 | Crabgrass plant response rating (0 to 10 scale) [8, 19]: 0 | Crabgrass plant response rating [8, 20]: 1 | Crabgrass plant response rating [8, 21]: 3 | Crabgrass plant response rating [8, 22]: 0 | Plant response rating, Crabgrass [8, 23]: 2 | Crabgrass plant response rating [8, 24]: 3 | Ducksalad plant response rating [9, 25]: 0 | Ducksalad plant response rating [9, 26]: 0 | Plant response rating, Ducksalad [9, 27]: 0 | Ducksalad plant response rating [9, 28]: 0 | B. signalgrass plant response rating [10, 17]: 0 | B. signalgrass plant response rating [10, 18]: 0 | B. signalgrass plant response rating (0 to 10 scale) [10, 19]: 4 | B. signalgrass plant response rating [10, 20]: 4 | B. signalgrass plant response rating [10, 21]: 6 | B. signalgrass plant response rating [10, 22]: 0 | Plant response rating, B. signalgrass [10, 23]: 0 | B. signalgrass plant response rating ([10]; Rate 500 g/ha, Postemergence, scale of 0 to 10 where 0 is no effect and 10 is complete control): 0 | Velvetleaf plant response rating [11, 18]: 0 | Velvetleaf plant response rating (0 to 10 scale) [11, 19]: 0 | Velvetleaf plant response rating [11, 20]: 0 | Velvetleaf plant response rating [11, 21]: 0 | Velvetleaf plant response rating [11, 22]: 0 | Plant response rating, Velvetleaf [11, 23]: 0 | Velvetleaf plant response rating [11, 24]: 0 | Redroot pigweed plant response rating [12, 17]: 0 | Redroot pigweed plant response rating [12, 18]: 0 | Redroot pigweed plant response rating (0 to 10 scale) [12, 19]: 0 | Redroot pigweed plant response rating [12, 20]: 0 | Redroot pigweed plant response rating [12, 21]: 0 | Redroot pigweed plant response rating [12, 22]: 0 | Plant response rating, Redroot pigweed [12, 23]: 0 | Redroot pigweed plant response rating [12, 24]: 0 | Rape plant response rating [13, 17]: 0 | Rape plant response rating [13, 18]: 0 | Rape plant response rating (0 to 10 scale) [13, 19]: 0 | Rape plant response rating [13, 20]: 0 | Rape plant response rating [13, 21]: 0 | Rape plant response rating [13, 22]: 0 | Plant response rating, Rape [13, 23]: 0 | Rape plant response rating [13, 24]: 0 | S. Flatsedge plant response rating [14, 25]: 0 | S. Flatsedge plant response rating [14, 26]: 0 | Plant response rating, S. Flatsedge [14, 27]: 0 | S. Flatsedge plant response rating [14, 28]: 0 | Bedstraw plant response rating [15, 17]: 0 | Bedstraw plant response rating [15, 18]: 0 | Bedstraw plant response rating (0 to 10 scale) [15, 19]: 0 | Bedstraw plant response rating [15, 20]: 0 | Bedstraw plant response rating [15, 21]: 0 | Bedstraw plant response rating [15, 22]: 0 | Plant response rating, Bedstraw [15, 23]: 0 | Bedstraw plant response rating ([15]; Rate 500 g/ha, Postemergence, scale 0 to 10, 0 no effect, 10 complete control): 0 | Barnyardgrass plant response rating [16, 25]: 0 | Barnyardgrass plant response rating [16, 26]: 0 | Plant response rating, Barnyardgrass [16, 27]: 0 | Barnyardgrass plant response rating ([16]; Rate 500 g/ha, listed under Postemergence (flood test species), scale 0 to 10, 0 no effect, 10 complete control): 0
